Test results from patent US4851521A, “Esters of hyaluronic acid” (priority 1985, dated 1989).

Tested on: dextran-induced aseptic (exudative) phlogosis in rabbit eye
Assay: Anti-inflammatory activity: dextran-induced aseptic (exudative) phlogosis in rabbit eye
Assay type: in vivo
Conditions: for eyes without signs of phlogosis out of the total number of eyes treated: 3 drops every 6 hours, 4 treated eyes; for antiinflammatory activity (in words): compared with the corresponding cortisones
Description: 9 hyaluronic esters of cortisone, hydrocortisone and fluorocortisone (9 fluorohydrocortisone) identified by the code names HYC1-HYC9 were tested. Table 1 describes these compounds and gives the percentages of the number of carboxylic groups of HY which are esterified with the above corticosteroids, and where applicable the percentage esterified with simple aliphatic alcohols and those salified with alkaline metals (Na):
Aseptic (exudative) phlogosis was induced in 48 rabbits by intraocular injection of dextran (1% in saline, 0.1 ml). The various products were administered by instillation in the right eye (RE) of the rabbits, while in the left eye (LE) only vehicle was instilled.
The treament (3 drops every 6 hours) was begun immediately after the injection of dextran and was continued for 16 days.
Both eyes of each rabbit were observed through a slit lamp. In particular the following were examined: the state of the conjunctiva and corneal epithelium, the anterior chamber (presence of Tyndall effect), state of the iris and of the posterior segment of the eye. With a Goldmann lens, the state of the back of the eye was examined. The presence of signs of inflammation (hyperemia, exudate, cloudiness of the liquids, etc.) was recorded.
Values are expressed as percentages (number of eyes without signs of phlogosis out of the total number of eyes treated). In brackets are the number of treated eyes.

[1] = 10 days from start of phlogosis
[2] = 12 days from start of phlogosis
[3] = 14 days from start of phlogosis
[4] = 16 days from start of phlogosis

Compound	eyes without signs of phlogosis out of the total number of eyes treated (2 days from start of phlogosis) [%]	eyes without signs of phlogosis out of the total number of eyes treated (4 days from start of phlogosis) [%]	eyes without signs of phlogosis out of the total number of eyes treated (6 days from start of phlogosis) [%]	eyes without signs of phlogosis out of the total number of eyes treated (8 days from start of phlogosis) [%]	eyes without signs of phlogosis out of the total number of eyes treated [1] [%]	eyes without signs of phlogosis out of the total number of eyes treated [2] [%]	eyes without signs of phlogosis out of the total number of eyes treated [3] [%]	eyes without signs of phlogosis out of the total number of eyes treated [4] [%]	antiinflammatory activity (in words)
(partial and mixed) ethanol and fluorocortisone esters (C21) of hyaluronic acid (HY) [HYC9]	0.0	0.0	0.0	25.0	25.0	50.0	100.0	100.0	–
C[C@]12CCC(=O)C=C1CC[C@@H]1[C@@H]2C(=O)C[C@@]2(C)[C@H]1CC[C@]2(O)C(=O)CO [Cortisone, cortisone, reference compound]	0.0	0.0	0.0	0.0	25.0	50.0	100.0	100.0	–
(partial) fluorocortisone ester (C21) of hyaluronic acid (HY) [HYC3]	0.0	0.0	0.0	25.0	25.0	100.0	100.0	100.0	–
(mixed ethanol and cortisone ester (C21) of hyaluronic acid (HY) [HYC4]	0.0	0.0	25.0	50.0	50.0	100.0	100.0	100.0	most efficient of these derivatives
(mixed) ethanol and fluorocortisone ester (C21) of hyaluronic acid (HY) [HYC6]	0.0	0.0	25.0	50.0	50.0	100.0	100.0	100.0	most efficient of these derivatives
(partial and mixed) ethanol and cortisone ester of hyaluronic acid (HY) [HYC7]	0.0	0.0	0.0	25.0	50.0	100.0	100.0	100.0	–
